Patent US12077503B2, “Substituted cyclic amides and their use as herbicides” (FMC CORPORATION, priority 2015, dated 2024)

How the values were obtained:
Format in all cases: in vivo
[1] = test system: Kochia (Kochia scoparia); experiment: Test A preemergence
Outline: (§1)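 Preemergence directed soil spray on seeded pots, or postemergence application to plants 2–10 cm, one- to two-leaf. Solvent mixture non-phytotoxic, with surfactant. Scored ~10 d later, visually, 0–100 vs untreated.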

[2] = test system: barnyardgrass (Echinochloa crus-galli); experiment: Test A preemergence
Outline: as §1

[3] = test system: giant foxtail (Setaria faberii); experiment: Test A preemergence
Outline: as §1

[4] = test system: pigweed (Amaranthus retroflexus); experiment: Test A preemergence
[5] = test system: ragweed (common ragweed, Ambrosia elatior); experiment: Test A preemergence
Outline: as §1

[6] = test system: ryegrass, Italian (Italian ryegrass, Lolium multiflorum); experiment: Test A preemergence
Outline: as §1

[7] = test system: Galium (catchweed bedstraw, Galium aparine); experiment: Test A postemergence; conditions: postemergence
Outline: as §1

[8] = test system: Kochia (Kochia scoparia); experiment: Test A postemergence; conditions: postemergence
Outline: as §1

[9] = test system: barnyardgrass (Echinochloa crus-galli); experiment: Test A postemergence; conditions: postemergence
Outline: as §1

[10] = test system: blackgrass (Alopecurus myosuroides); experiment: Test A postemergence; conditions: postemergence
Outline: as §1

[11] = test system: corn (Zea mays); experiment: Test A postemergence; conditions: postemergence
Outline: as §1

[12] = test system: giant foxtail (Setaria faberii); experiment: Test A postemergence; conditions: postemergence
Outline: as §1

[13] = test system: pigweed (Amaranthus retroflexus); experiment: Test A postemergence; conditions: postemergence
Outline: as §1

[14] = test system: ragweed (common ragweed, Ambrosia elatior); experiment: Test A postemergence; conditions: postemergence
Outline: as §1

[15] = test system: ryegrass, Italian (Italian ryegrass, Lolium multiflorum); experiment: Test A postemergence; conditions: postemergence
Outline: as §1

[16] = test system: wheat (Triticum aestivum); experiment: Test A postemergence; conditions: postemergence
Outline: as §1

[17] = test system: barnyardgrass (Echinochloa crus-galli); experiment: Test B flooded paddy test; conditions: Flood, 500 g ai/ha; 0 to 100 scale where 0 is no effect and 100 is complete control; 13 to 15 d
Outline: (§2)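 Plants at 2-leaf stage flooded to 3 cm above soil, with compounds applied directly to paddy water and that depth maintained. Plants kept in greenhouse 13–15 d. Visual rating versus controls on a 0 (no effect) to 100 (complete control) scale.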

[18] = test system: ducksalad (Heteranthera limosa); experiment: Test B flooded paddy test; conditions: Flood, 500 g ai/ha; 0 to 100 scale where 0 is no effect and 100 is complete control; 13 to 15 d
Outline: as §2

[19] = test system: rice (Oryra sativa); experiment: Test B flooded paddy test; conditions: Flood, 500 g ai/ha; 0 to 100 scale where 0 is no effect and 100 is complete control; 13 to 15 d
Outline: as §2

[20] = test system: sedge, umbrella (small-flower umbrella sedge, Cyperus difformis); experiment: Test B flooded paddy test; conditions: Flood, 500 g ai/ha; 0 to 100 scale where 0 is no effect and 100 is complete control; 13 to 15 d
Outline: as §2

[21] = 125 g ai/ha, preemergence, 0 to 100 scale (0 no effect, 100 complete control)
[22] = Preemergence, 500 g ai/ha, visual injury approx. 10 d
[23] = 125 g ai/ha, visual injury rating on 0 to 100 scale (0 no effect, 100 complete control), approx. 10 d
[24] = 500 g ai/ha, 0 to 100 scale, 0 no effect, 100 complete control

SMILES: Cc1cc(NC(=O)C2C(=O)NCC2c2cccc(OC(F)F)c2)ccc1F (stereo not drawn) [Compound 424]
- Plant response rating, Kochia [1, 21]: 0
- Kochia plant response rating (0 to 100 scale, 0 is no effect, 100 is complete control) [1, 22]: 0
- Plant response rating, Barnyardgrass [2, 21]: 30
- Barnyardgrass plant response rating (0 to 100 scale, 0 is no effect, 100 is complete control) [2, 22]: 90
- Plant response rating, Foxtail, Giant [3, 21]: 70
- Foxtail, Giant plant response rating (0 to 100 scale, 0 is no effect, 100 is complete control) [3, 22]: 90
- Plant response rating, Pigweed [4, 21]: 0
- Pigweed plant response rating (0 to 100 scale, 0 is no effect, 100 is complete control) [4, 22]: 0
- Plant response rating, Ragweed [5, 21]: 0
- Ragweed plant response rating (0 to 100 scale, 0 is no effect, 100 is complete control) [5, 22]: 0
- Plant response rating, Ryegrass, Italian [6, 21]: 0
- Ryegrass, Italian plant response rating (0 to 100 scale, 0 is no effect, 100 is complete control) [6, 22]: 0
- Galium plant response rating [7, 23]: 0
- Plant response rating, Galium [7, 24]: 0
- Kochia plant response rating [8, 23]: 0
- Plant response rating, Kochia [8, 24]: 0
- Barnyardgrass plant response rating [9, 23]: 50
- Plant response rating, Barnyardgrass [9, 24]: 70
- Blackgrass plant response rating [10, 23]: 0
- Plant response rating, Blackgrass [10, 24]: 0
- Corn plant response rating [11, 23]: 0
- Plant response rating, Corn [11, 24]: 0
- Foxtail, Giant plant response rating [12, 23]: 40
- Plant response rating, Foxtail, Giant [12, 24]: 70
- Pigweed plant response rating [13, 23]: 0
- Plant response rating, Pigweed [13, 24]: 0
- Ragweed plant response rating [14, 23]: 0
- Plant response rating, Ragweed [14, 24]: 0
- Ryegrass, Italian plant response rating [15, 23]: 0
- Plant response rating, Ryegrass, Italian [15, 24]: 0
- Wheat plant response rating [16, 23]: 0
- Plant response rating, Wheat [16, 24]: 0
- Plant response rating, Barnyardgrass [17]: 0
- Plant response rating, Ducksalad [18]: 30
- Plant response rating, Rice [19]: 0
- Plant response rating, Sedge, Umbrella [20]: 0
